Several values for one entry are separate records, joined by “and”; a condition that tells them apart may be missing. Equal values may be shown once.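 All cell lines were grown in 96-well plates and treated with compound for 48 hours. GI50 is the concentration that inhibits growth by half. TGI marks complete inhibition of growth.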
What was measured:
Experiment in all cases: DTP human tumour cell line panel, 48 h
[1] = system: U251 CNS
[2] = system: IGROV1 ovarian
[3] = system: UO-31 renal
[4] = system: HCT-116 colon
[5] = system: UACC-62 melanoma
[6] = system: K-562 leukemia
[7] = system: NCI-H23 lung
[8] = system: RXF 393 renal
[9] = system: A498 renal
[10] = system: HT29 colon

| Structure (SMILES) | GI50 [1] | TGI [1] | GI50 [2] | TGI [2] | GI50 [3] | TGI [3] | GI50 [4] | TGI [4] | GI50 [5] | TGI [5] | GI50 [6] | TGI [6] | GI50 [7] | TGI [7] | GI50 [8] | TGI [8] | GI50 [9] | TGI [9] | GI50 [10] | TGI [10] |
| --- | --- | --- | --- | --- | --- | --- | --- | --- | --- | --- | --- | --- | --- | --- | --- | --- | --- | --- | --- | --- |
| O=C(Nc1cccc(O)c1)c1cccc(NC2=C(Cl)C(=O)N(Cc3ccccc3)C2=O)c1 | 13.7 µM | 26.6 µM | 1.19 µM | 6.11 µM | 6.61 µM | 21.7 µM | 18.1 µM | 32 µM | 14.6 µM | 28.1 µM | 1.51 µM | 28.4 µM | 20.6 µM | 35.8 µM | 14.8 µM | 42.3 µM | 13.2 µM | 28.9 µM | 22.2 µM | 49.7 µM |
| O=S(=O)(O)/C(=C\c1ccccc1)c1ccccc1 (tested in a mixture with another compound) | – | > 100 µM | – | > 100 µM | – | > 100 µM | – | > 100 µM | – | > 100 µM | – | > 100 µM | – | > 100 µM | – | > 100 µM | – | > 100 µM | – | > 100 µM |
| Cc1cccc2c1O/C(=C\c1ccc([N+](=O)[O-])o1)C2=O | 1.44 µM | 2.89 µM | 1.54 µM | 5.39 µM | 1.09 µM | 2.49 µM | 0.251 µM | 0.777 µM | 1.26 µM | 2.72 µM | 0.296 µM | 1.12 µM | 1.35 µM | 3.41 µM | 1.24 µM | 2.83 µM | 1.76 µM | 4.63 µM | 0.324 µM | 1.27 µM |
| Cc1cccc(C)c1NC(=O)CCC(=O)NC(N)=S | – | > 100 µM | – | > 100 µM | – | > 100 µM | – | > 100 µM | – | > 100 µM | – | > 100 µM | – | > 100 µM | – | > 100 µM | – | > 100 µM | – | > 100 µM |
| COC1C(O)C(C)OC(OC2CC3CCC4C(CCC5(C)C(C6=CC(=O)OC6)CCC45O)C3(O)C(OC(C)=O)C2)C1O (centres undefined) | – | > 24.2 µM | – | 15.7 µM | – | 4.51 µM | – | 4.75 µM | – | 5.92 µM | – | > 100 µM | – | 2.61 µM | – | 1.32 µM | – | 3.5 µM | – | 12.7 µM |
| C(=C\c1nccc2c1[nH]c1ccccc12)/c1ccccc1 | 3.26 µM | 13.7 µM | 0.664 µM | 23.6 µM | 1.58 µM | 17.4 µM | 2.71 µM | 10.7 µM | 3.48 µM | 23.9 µM | 2.25 µM | 37.2 µM | 3.78 µM | > 100 µM | 2.06 µM | 4.66 µM | 4.36 µM | 15.9 µM | 3.07 µM | 11.9 µM |
| CCN(CC)CCOc1ccc2c(c1)C(=O)c1cc(OCCN(CC)CC)ccc1-2 | 8.73 µM | 31.3 µM | 6.65 µM | 43.2 µM | 3.52 µM | 26.3 µM | 3.45 µM | 15.2 µM | 12.4 µM | 26.7 µM | 3.1 µM | 11.2 µM | 11.9 µM | 27.5 µM | 10.2 µM | 24 µM | 16.5 µM | 37.5 µM | 2.58 µM | 10.4 µM |
| CCc1c(O)c2c(c(O)c1C(C)=O)C(=O)c1c(cc(O)c(C(=O)O)c1C(=O)O)C2=O | – | > 100 µM | – | > 100 µM | – | > 100 µM | – | > 100 µM | – | > 100 µM | – | > 100 µM | – | > 100 µM | – | > 100 µM | – | > 100 µM | – | > 100 µM |
| COc1cc(C2=NN(c3ccc(S(N)(=O)=O)cc3)C(c3ccc(Cl)cc3)C2)cc(OC)c1OC (centres undefined) | 3.84 µM | > 100 µM | 8.09 µM | > 100 µM | 2.5 µM | > 100 µM | 3.41 µM | > 100 µM | 4.12 µM | > 100 µM | 5.67 µM | > 100 µM | 5.72 µM | > 100 µM | 3.05 µM | > 100 µM | 1.93 µM | 7.68 µM | 4.15 µM | > 100 µM |
| COc1ccc(C(=O)C(C(=O)C(=O)Nc2nccs2)c2ccc(OC)cc2)cc1 (centres undefined) | – | > 100 µM | – | > 100 µM | – | > 100 µM | – | > 100 µM | – | > 100 µM | – | > 100 µM | – | > 100 µM | – | > 100 µM | – | > 100 µM | – | > 100 µM |
| Cc1cc(C)c2c(SCc3ccc(Cl)cc3Cl)nc(N)nc2n1 | – | > 100 µM | – | > 100 µM | – | 70.7 µM | – | > 100 µM | – | > 100 µM | – | 97.1 µM | – | > 100 µM | – | > 100 µM | – | > 100 µM | – | > 100 µM |
| CCc1cccc(C(C)CC)c1NC(=O)C(=O)C(CC(=O)Nc1ccc(Cl)c(Cl)c1)C(=O)OC (centres undefined) | – | > 100 µM | – | > 100 µM | – | > 100 µM | – | > 100 µM | – | 18.9 µM | – | > 100 µM | – | > 100 µM | – | > 100 µM | – | > 100 µM | – | > 100 µM |
| CCCCCCC#CC#Cc1cccc(=O)o1 | 2.07 µM | 4.92 µM | 2.35 µM | – | 3.26 µM | > 27.4 µM | 0.985 µM | 2.34 µM | 1.45 µM | 2.86 µM | 7.33 µM | > 100 µM | 0.848 µM | 2.25 µM | 1.72 µM | 4.65 µM | 14.9 µM | 29.1 µM | 3.69 µM | 34.6 µM |
| Cc1cc(C)cc(Nc2ccc([N+](=O)[O-])c(NCCN3CCOCC3)n2)c1 | – | > 100 µM | – | > 100 µM | – | > 100 µM | 0.00222 µM and 0.0146 µM | > 100 µM | – | > 100 µM | – | > 100 µM | 0.00739 µM and 0.0275 µM | > 100 µM | 0.0208 µM | 48.8 µM | 0.000606 µM | 0.00915 µM and 0.0676 µM | 0.00219 µM and 0.0188 µM | > 100 µM |
| NCCP(=O)(O)O | – | > 100 µM | – | > 100 µM | – | > 100 µM | – | > 100 µM | – | > 100 µM | – | > 100 µM | – | > 100 µM | – | > 100 µM | – | > 100 µM | – | > 100 µM |
| O=C1C(=O)c2ccccc2C(O)=C1CC=C(Cl)Cl | 2.17 µM and 2.01 µM | > 85.8 µM and 138 µM and > 100 µM | 4.93 µM and 8.27 µM | 119 µM and > 100 µM | 15.8 µM and 7.26 µM | 81.2 µM and 101 µM and > 100 µM | 1.15 µM and 2.96 µM | 29.7 µM and 44 µM and > 100 µM | 6.1 µM and 8.42 µM | 40 µM and 81.7 µM and > 100 µM | 0.987 µM and 3.19 µM | > 41.5 µM and 175 µM and > 100 µM | 11.6 µM and 12.7 µM | 51.3 µM and 154 µM and 99.1 µM | 13.8 µM and 13.7 µM | 76.9 µM and 203 µM and 97.9 µM | 15.1 µM and 13.9 µM | 57.8 µM and 96.2 µM and 51 µM | 6.4 µM | 141 µM and > 100 µM |

From PubChem BioAssay (NCI)
